Results published in patent publication US4036840A, “2-Substituted-s-triazolo[1,5a]pyrimidines” (ICN Pharmaceuticals, priority 1975, dated 1977).
Entries after “also recorded” stand apart in the source; their conditions may differ.

System: isolated guinea pig uteri
Test: Smooth muscle relaxation of isolated guinea pig uteri
Conditions: 2-10 μg/ml

Compound	smooth muscle relaxation
Cc1cc(N(CCO)CCO)n2nc(SCc3ccccc3)nc2n1 [Compound 29, 2-benzylthio-7-[bis(β-hydroxyethyl)amino]-5-methyl-s-triazolo[1,5a]pyrimidine]	smooth muscle relaxants
CCN(CC)c1cc(C)nc2nc(SCc3ccccc3)nn12 [Compound 27, 2-benzylthio-7-diethylamino-5-methyl-s-triazole[1,5a]pyrimidine]	smooth muscle relaxants
Cc1cc(O)n2nc(SCc3ccccc3)nc2n1 [Compound 24, 2-benzylthio-7-hydroxy-5-methyl-s-triazolo[1,5a]pyrimidine]	smooth muscle relaxants

System: anesthetized dogs
Test: Hemodynamic activity in anesthetized dogs
Assay type: in vivo, dog
Conditions: 10 mg/Kg/hr; vehicle DMSO (Saline for 44-46)
Protocol: Compounds 3, 41, 43-48, 51 were tested in anesthetized dogs for hemodynamic activities including cardiac output, stroke volume and heart rate. For management of low perfusion states such as cardiovascular shock and congestive heart failure, it is desirable to have increased cardiac output and increased stroke volume accompanied by a decrease or no change in heart rate.
% CHANGE OF CARDIAC OUTPUT, STROKE VOLUME AND HEART RATE AT 10 mg/Kg/hr

Compound	% change of cardiac output	% change of heart rate	% change of stroke volume
CCCc1cc(CCC)n2nc(SCc3ccc(C)cc3)nc2n1 [Compound 43, 5,7-di-n-propyl-2-(4-methylbenzyl)thio-1,2,4-triazolo[1,5a]pyrimidine]	+34.3%	-2.8%	+3.8%
CCCc1cc(CCC)n2nc(S(=O)(=O)Cc3ccc(C)cc3)nc2n1 [Compound 48, 5,7-di-n-propyl-2-(4-methylbenzyl)sulfonyl-1,2,4-triazolo[1,5a]pyrimidine]	+16.4%	-14.3%	+36.1%
CCCc1cc(CCC)n2nc(S(=O)(=O)Cc3ccccc3)nc2n1 [Compound 47, 2-benzylsulfonyl-5,7-di-n-propyl-1,2,4-triazolo[1,5a]pyrimidine]	+35.6%	+0.2%	+34.7%
CCCc1cc(CCC)n2nc(SCc3ccncc3)nc2n1 [Compound 45, 5,7-di-n-propyl-2-(4-picolyl)thio-1,2,4-triazolo[1,5a]pyrimidine]	+27%	-8.1%	+39%
CCCc1cc(CCC)n2nc(SCc3cccnc3)nc2n1 [Compound 46, 5,7-di-n-propyl-2-(3-picolyl)thio-1,2,4-triazolo[1,5a]pyrimidine]	+20%	-10.9%	+35%
Cc1cc(C)n2nc(SCc3ccccc3)nc2n1 [Compound 3, 2-benzylthio-5,7-dimethyl-s-triazolo[1,5a]pyrimidine]	-1%	-7%	-7%
CC(=O)Cc1cc(C)nc2nc(SCc3ccccc3)nn12 [Compound 51, 2-BENZYLTHIO-5-METHYL-7-(2-ACETONYL)-1,2,4-TRIAZOLO [1,5a]PYRIMIDINE]	+46.2%	+3.3%	+42.0%
CCCc1cc(CCC)n2nc(SCc3ccc(C(=O)O)cc3)nc2n1 [Compound 44, 5,7-di-n-propyl-2-(4-carboxybenzyl)thio-1,2,4-triazolo[1,5a]pyrimidine]	+18%	+0.2%	+18%
CCCc1cc(CCC)n2nc(SCc3ccccc3)nc2n1 [Compound 41, 2-benzylthio-5,7-di-n-propyl-1,2,4-triazolo[1,5a]pyrimidine]	+23%	-4.2%	+27%

System: rats
Test: Hypotensive activity (Weeks and Jones), mean blood pressure in rats
Assay type: in vivo, rat
Conditions: oral, 25 mg/kg
Protocol: Exper. Therap., 104, 646 (1960). At an oral dose of 50 mg/kg in rats, there was a % decrease in mean blood pressure at 1, 3, 6 hours of 11%, 13%, and 24%, respectively.

Compound	hypotensive activity
Cc1cc(NN)n2nc(SCc3ccccc3)nc2n1 [Compound 32, 2-benzylthio-7-hydrazino-5-methyl-s-triazolo[1,5a]pyrimidine]	significant hypotensive activity

Same assay, conditions: oral, 50 mg/kg

Compound	hypotensive activity
Cc1cc(NN)n2nc(SCc3ccccc3)nc2n1 [Compound 32, 2-benzylthio-7-hydrazino-5-methyl-s-triazolo[1,5a]pyrimidine]	significant hypotensive activity

Same assay, conditions: oral, 50 mg/kg, 1 hour

Compound	% decrease in mean blood pressure at 1 hour [%]
Cc1cc(NN)n2nc(SCc3ccccc3)nc2n1 [Compound 32, 2-benzylthio-7-hydrazino-5-methyl-s-triazolo[1,5a]pyrimidine]	11

Same assay, conditions: oral, 50 mg/kg, 3 hours

Compound	% decrease in mean blood pressure at 3 hours [%]
Cc1cc(NN)n2nc(SCc3ccccc3)nc2n1 [Compound 32, 2-benzylthio-7-hydrazino-5-methyl-s-triazolo[1,5a]pyrimidine]	13

Same assay, conditions: oral, 50 mg/kg, 6 hours

Compound	% decrease in mean blood pressure at 6 hours [%]
Cc1cc(NN)n2nc(SCc3ccccc3)nc2n1 [Compound 32, 2-benzylthio-7-hydrazino-5-methyl-s-triazolo[1,5a]pyrimidine]	24

System: phosphodiesterase enzymes
Test: not given
Conditions: background; cited from earlier work

Compound	phosphodiesterase inhibition
Cc1cc(C)n2ncc(Br)c2n1 [3-bromo-5,7-dimethylpyrazolo[1,5a]pyrimidine]	significantly more active than theophylline against various phosphodiesterase enzymes
Cn1c(=O)c2[nH]cnc2n(C)c1=O [Theophylline]	does not selectively inhibit phosphodiesterase; also recorded: not as potent as a phosphodiesterase inhibitor as is desired

System: 3',5'-Cyclic AMP phosphodiesterase (PDE) from kidney
Test: 3',5'-Cyclic AMP phosphodiesterase (PDE) inhibition, rabbit kidney enzyme (Fraction II, low Km)
Assay type: biochemical
Conditions: relative to theophylline, cAMP about 1.7 × 10^-7 M, 30° C., 10 minutes, pH 7.5

PDE Kidney; α (I50 theophylline / I50 compound)	Compound
2.30	Cc1cc(N(CCO)CCO)n2nc(SCc3ccccc3)nc2n1 [Compound 29, 2-benzylthio-7-[bis(β-hydroxyethyl)amino]-5-methyl-s-triazolo[1,5a]pyrimidine]
2.30	CCN(CC)c1cc(C)nc2nc(SCc3ccccc3)nn12 [Compound 27, 2-benzylthio-7-diethylamino-5-methyl-s-triazole[1,5a]pyrimidine]
2.10	Cc1cc(C)n2nc(SCc3ccccc3)nc2n1 [Compound 3, 2-benzylthio-5,7-dimethyl-s-triazolo[1,5a]pyrimidine]
0.75	Cc1cc(O)n2nc(SCc3ccccc3)nc2n1 [Compound 24, 2-benzylthio-7-hydroxy-5-methyl-s-triazolo[1,5a]pyrimidine]
7.0	CCCNc1c(C(=O)OCC)cnc2nc(SCc3ccccc3)nn12 [Compound 39, 2-benzylthio-6-carbethoxy-7-n-propylamino-s-triazolo[1,5a]pyrimidine]

System: rats
Test: Anti-inflammatory test (Winter et al.), foot volume in rats
Assay type: in vivo, rat
Conditions: oral, 100 mg/kg
Text: Following the procedure of C. A. Winter, et al as described in the Proc. Exper.

Compound	anti-inflammatory activity	inhibition of foot volume [%]
Cc1cc(O)n2nc(SCc3ccccc3)nc2n1 [Compound 24, 2-benzylthio-7-hydroxy-5-methyl-s-triazolo[1,5a]pyrimidine]	significant activity	43

System: anesthetized dog
Test: not given
Conditions: background; cited from earlier work

Compound	positive inotropic effect
Cc1cc(C)n2ncc(Br)c2n1 [3-bromo-5,7-dimethylpyrazolo[1,5a]pyrimidine]	positive inotropic effect

System: 3',5'-Cyclic AMP phosphodiesterase (PDE) from lung
Test: 3',5'-Cyclic AMP phosphodiesterase (PDE) inhibition, rabbit lung enzyme (Fraction II, low Km)
Assay type: biochemical
Conditions: relative to theophylline, cAMP about 1.7 × 10^-7 M, 30° C., 10 minutes, pH 7.5

PDE Lung; α (I50 theophylline / I50 compound)	Compound
2.10	Cc1cc(N(CCO)CCO)n2nc(SCc3ccccc3)nc2n1 [Compound 29, 2-benzylthio-7-[bis(β-hydroxyethyl)amino]-5-methyl-s-triazolo[1,5a]pyrimidine]
4.20	CCN(CC)c1cc(C)nc2nc(SCc3ccccc3)nn12 [Compound 27, 2-benzylthio-7-diethylamino-5-methyl-s-triazole[1,5a]pyrimidine]
2.50	Cc1cc(C)n2nc(SCc3ccccc3)nc2n1 [Compound 3, 2-benzylthio-5,7-dimethyl-s-triazolo[1,5a]pyrimidine]
0.75	Cc1cc(O)n2nc(SCc3ccccc3)nc2n1 [Compound 24, 2-benzylthio-7-hydroxy-5-methyl-s-triazolo[1,5a]pyrimidine]
21.0	CCCNc1c(C(=O)OCC)cnc2nc(SCc3ccccc3)nn12 [Compound 39, 2-benzylthio-6-carbethoxy-7-n-propylamino-s-triazolo[1,5a]pyrimidine]

System: isolated guinea pig heart preparation
Test: Inotropic effect in isolated guinea pig heart preparation
Conditions: 10 μg/ml

Compound	positive inotropic effect
Cc1cc(N(CCO)CCO)n2nc(SCc3ccccc3)nc2n1 [Compound 29, 2-benzylthio-7-[bis(β-hydroxyethyl)amino]-5-methyl-s-triazolo[1,5a]pyrimidine]	positive inotropic effect

System: isolated guinea pig heart preparation
Test: Coronary dilation in isolated guinea pig heart preparation
Conditions: 10 μg/ml, preliminary

Compound	coronary dilation
Cc1cc(N(CCO)CCO)n2nc(SCc3ccccc3)nc2n1 [Compound 29, 2-benzylthio-7-[bis(β-hydroxyethyl)amino]-5-methyl-s-triazolo[1,5a]pyrimidine]	coronary dialation
CCN(CC)c1cc(C)nc2nc(SCc3ccccc3)nn12 [Compound 27, 2-benzylthio-7-diethylamino-5-methyl-s-triazole[1,5a]pyrimidine]	coronary dialation
Cc1cc(O)n2nc(SCc3ccccc3)nc2n1 [Compound 24, 2-benzylthio-7-hydroxy-5-methyl-s-triazolo[1,5a]pyrimidine]	coronary dialation
CCCNc1c(C(=O)OCC)cnc2nc(SCc3ccccc3)nn12 [Compound 39, 2-benzylthio-6-carbethoxy-7-n-propylamino-s-triazolo[1,5a]pyrimidine]	coronary dialation

System: not listed separately
Test: Solubility noted in the PDE test (Insoluble)
Assay type: physicochemical
Conditions: compound not tested for PDE inhibition
Protocol: With respect to the compounds which are indicated in Tables I, II and III as being insoluble, although such compounds have not undergone the inhibitory test of Example XVI, due to the similarity in structure to compounds which were tested, it is expected that in vivo testing of the compounds in forms other than solution will readily indicate phosphodiesterase enzyme inhibitory capability.

Solubility	Compound
Insoluble	CCOC(=O)c1cnc2nc(SCc3ccccc3)nn2c1S [Compound 40, 2-BENZYLTHIO-6-CARBETHOXY-7-MERCAPTO-s-TRIAZOLO[1,5a] PYRIMIDINE]
Insoluble	CCOC(=O)c1cnc2nc(SCc3ccccc3)nn2c1NCc1ccccc1 [Compound 37]
Insoluble	Cc1cc(NN)n2nc(SCc3ccccc3)nc2n1 [Compound 32, 2-benzylthio-7-hydrazino-5-methyl-s-triazolo[1,5a]pyrimidine]
Insoluble	Cc1cc(C)n2nc(SCc3cc4c(cc3Cl)OCO4)nc2n1 [Compound 16]
Insoluble	CCOC(=O)c1cnc2nc(SCc3ccccc3)nn2c1Cl [Compound 35, 2-benzylthio-6-carbethoxy-7-chloro-s-triazolo[1,5a]pyrimidine]
Insoluble	CCOC(=O)c1cnc2nc(SCc3ccccc3)nn2c1NCCO [Compound 38]
Insoluble	Cc1cc(C)n2nc(SCc3c(C)ccc4ccccc34)nc2n1 [Compound 17]
